Values after ≈ are worked out from the molar mass of the structure shown. “Also recorded” adds a separate entry of the source. Counter-ions that a name gives are not always drawn. Like-named read-outs stand apart in the source and are kept apart here.
Assays:
[1] = cited from earlier work
[2] = Intrinsic dissolution rate (stationary disk, 0.01N HCl); assay type: physicochemical; set-up: Intrinsic Dissolution Rate free base equivalent: unit not given here; settings: 37° C.; for Intrinsic Dissolution Rate free base equivalent: disk pressed at 3900 psi, 700 mL 0.01N HCl, paddle 50 rpm, UV 333 nm
Protocol: Stationary disks for apilimod free base and the nine apilimod salts were prepared. Intrinsic dissolution rate of the free base and the nine salts were prepared from preparations at 3900 psi. Each disk was placed into a flat bottom vessel containing 700 mL of 0.01N HCl medium equipped with a Distek Dissolution bath, and a Distek cirvulator/heater set to 37°° C. with a paddle speed of 50 rpm. The Opt-Diss 405 system single analytical wavelength settings was 333 nm with a background wavelength setting of 400 nm and reading were taken every 1 minute to 35 minutes. […] The kinetic solubility of the salt behavior is unpredictable and the dramatic difference between the non-mesylate salts was an unexpected discovery in the behavior of the salts.

[3] = PXRD of residual solids after the IDR experiment; assay type: physicochemical; settings: pellet surface after IDR experiment, compared with input API
Protocol: X-Ray Powder Diffraction (XRPD). […] Configuration on the incidental beam side: variable divergence slits (10 mm irradiated length), 0.04 rad Soller slits, fixed anti-scatter slit) (0.50°, and 10 mm beam mask. Configuration on the diffracted beam side: variable anti-scatter slit (10 mm observed length) and 0.02 rad Soller slit. Samples were mounted flat on zero-background Si wafers.
At the end of the IDR analysis, the pellet surface was analyzed by PXRD and compared to its corresponding input API for any physical changes.

[4] = Kinetic solubility in FaSSGF (pH 1.6); settings: after test in FaSSGF
Protocol: Kinetic solubility studies were carried out on the various apilimod salts provided in Table 1 in Fasted State Simulated Gastric Fluid (FaSSGF) at pH 1.6 at ambient temperature. FaSSGF is a dissolution medium that has the average acidic pH and similar osmolarity of fasted gastric fluid. FaSSGF that can help reveal how an oral drug is likely to behave in the stomach after drinking a glass of water. The stability, solubility and dissolution data generated from testing in FaSSGF can help identify critical factors influencing a drug's absorption in the fasted state, and in turn facilitate the selection of the appropriate solid state and formulation approach for a drug.

[5] = aqueous solubility of the disalt; cited from earlier work
[6] = Kinetic solubility in FaSSIF (pH 6.5); assay type: physicochemical; settings: FaSSIF pH 6.5, 1 hour
Protocol: Additional kinetic solubility studies were carried out in Fasted State Simulated Intestinal Fluid (FaSSIF) at pH6.5 at ambient temperature and the results are shown in FIG. 3. FaSSIF helps reveal how an oral drug is likely to dissolve and potentially be absorbed in fluid from the upper intestine after drinking a glass of water. […] After 1 hour of stirring, all samples appeared to be hazy suspensions, but after 4 and 24 hours their appearance changed to a milky white suspension by PXRD analysis.

[7] = Solubility of apilimod vs pH in 0.1N HCl and Britton-Robinson buffers; assay type: physicochemical; settings: for solubility at 3 days / solubility thermodynamic at 3 days: thermodynamic from solid; for solubility thermodynamic at 3 days: Britton-Robinson buffer
Protocol: Next, the solubility of apilimod at various pH was evaluated. The samples were prepared at room temperature in 0.1N HCl (pH 1) and Britton-Robinson buffers (BRB) pH 2, 3, 4, 5, 6, 7 and 8. After 3 days, each sample was centrifuged for 30 min, the solution was filtered and the concentration of apilimod determined by HPLC analysis. HPLC analysis was carried out using an XTerra MS C18 (5 μm 4.6×150 mm) column and 18-minute gradient HPLC conditions.

[8] = tested on: synovial IL-12 and IL-23 expression; settings: patients with rheumatoid arthritis, Phase II (Krauz et al. 2012); cited from earlier work
[9] = tested on: IL-12/IL-23 synthesis; settings: oral administration, patients with psoriasis, open-label (Wada et al. 2012); cited from earlier work
[10] = tested on: active Crohn's disease; settings: active Crohn's disease (Sands et al. 2010); cited from earlier work
[11] = pKa of the counter-acid, not of the apilimod salt

Compound: Cc1cccc(/C=N/Nc2cc(N3CCOCC3)nc(OCCc3ccccn3)n2)c1.Cc1cccc(/C=N/Nc2cc(N3CCOCC3)nc(OCCc3ccccn3)n2)c1.O=C(O)/C=C/C(=O)O [Hemi-fumarate]
- pKa of Acid (first value) [1, 11]: 3.0
- pKa of Acid (second value) [1, 11]: 4.4
- intrinsic dissolution rate relative to D/L-Lactate and HCl salts ([2]; 0.01N HCl): less that 10-times lower
- Residual Solids By XRPD [3]: Matches Input
- Residual Solids By XRPD ([3]; listed as hemi-fumarate): match the XRPD pattern of the initial input material
- residues by powder diffraction (PXRD) [4]: crystalline, and matched input salts

Compound: Cc1cccc(/C=N/Nc2cc(N3CCOCC3)nc(OCCc3ccccn3)n2)c1.O=C(O)CCC(=O)O [Succinate]
- pKa of Acid (first value) [1, 11]: 4.2
- pKa of Acid (second value) [1, 11]: 5.6

Compound: Cc1cccc(C=NNc2cc(N3CCOCC3)nc(OCCc3ccccn3)n2)c1.Cl.Cl [dichloride]
- solubility in water [5]: 213000 µg/mL

Compound: 1-hydroxy-2-naphthoate
- pKa of Acid (first value) [1, 11]: 2.7
- pKa of Acid (second value) [1, 11]: 13.5

Compound: Cc1cccc(/C=N/Nc2cc(N3CCOCC3)nc(OCCc3ccccn3)n2)c1 [HCl]
- pKa of acid ([1]; strong acids required for disalt formation, per the '436 patent): −4.5
- Residual Solids By XRPD [3]: match the XRPD pattern of the initial input material; also recorded: Matches Input
- solubility in FaSSIF relative to other forms [6]: higher solubility at 1 hour compared to the other salts and the freebase

Compound: Glycolate
- pKa of Acid (first value) [1, 11]: 3.3
- Intrinsic Dissolution Rate free base equivalent [2]: 0.2670
- Residual Solids By XRPD [3]: consistent with the input material and the poorly crystalline phase

Compound: Maleate
- pKa of Acid (first value) [1, 11]: 1.9
- pKa of Acid (second value) [1, 11]: 6.2
- Intrinsic Dissolution Rate free base equivalent [2]: 0.0871
- Residual Solids By XRPD [3]: Matches Input
- Residual Solids By XRPD ([3]; listed as maleate): match the XRPD pattern of the initial input material
- residues by powder diffraction (PXRD) [4]: crystalline, and matched input salts

Compound: Cc1cccc(/C=N/Nc2cc(N3CCOCC3)nc(OCCc3ccccn3)n2)c1 [Apilimod]
- solubility at 3 days ([7]; 0.1N HCl, pH 1, simulated gastric fluid, pH of approximately 1, read-out: solubility): > 10000 µg/mL
- PXRD of Residuals Day 3 ([7]; BRB pH 2): Phosphate salt
- Conc Day 3 ([7]; BRB pH 2, medium pH 1.99, prep. 11 mg/mL, room temperature, Day 3 pH 2.75): 137 µg/mL
- PXRD of Residuals Day 3 ([7]; BRB pH 3): Phosphate salt
- PXRD of Residuals Day 3 ([7]; BRB pH 4): Free base, hydrate Group B
- PXRD of Residuals Day 3 ([7]; BRB pH 5): Free base, hydrate Group B
- PXRD of Residuals Day 3 ([7]; BRB pH 6): Free base, hydrate Group B
- PXRD of Residuals Day 3 ([7]; BRB pH 7): Free base, hydrate Group B
- PXRD of Residuals Day 3 ([7]; BRB pH 8): Free base, hydrate Group B
- solubility thermodynamic at 3 days ([7]; aqueous buffer, BRB pH 2, medium pH 1.99, prep. 11 mg/mL, room temperature, Day 3 pH 2.75, read-out: Conc Day 3): 137 µg/mL (≈ 327 µM)
- solubility thermodynamic at 3 days ([7]; aqueous buffer, BRB pH 3, medium pH 2.88, prep. 2.8 mg/mL, room temperature, Day 3 pH 3.61, read-out: Conc Day 3): 17.3 µg/mL (≈ 41.3 µM)
- solubility thermodynamic at 3 days ([7]; aqueous buffer, BRB pH 4, medium pH 4.11, prep. 2.8 mg/mL, room temperature, Day 3 pH 4.22, read-out: Conc Day 3): 2.3 µg/mL (≈ 5.5 µM)
- solubility thermodynamic at 3 days ([7]; aqueous buffer, BRB pH 5, medium pH 5.04, prep. 2.8 mg/mL, room temperature, Day 3 pH 5.08, read-out: Conc Day 3): 0.2 µg/mL (≈ 0.478 µM)
- solubility thermodynamic at 3 days ([7]; aqueous buffer, BRB pH 6, medium pH 6.15, prep. 2.7 mg/mL, room temperature, Day 3 pH 6.18, read-out: Conc Day 3): < 0.1 µg/mL
- solubility thermodynamic at 3 days ([7]; aqueous buffer, BRB pH 7, medium pH 7.18, prep. 2.7 mg/mL, room temperature, Day 3 pH 7.21, read-out: Conc Day 3): < 0.1 µg/mL
- solubility thermodynamic at 3 days ([7]; pH 7.9, aqueous buffer, BRB pH 8, medium pH 7.90, prep. 2.8 mg/mL, room temperature, Day 3 pH 8.01, read-out: Conc Day 3): < 0.1 µg/mL
- PXRD of Residuals Day 3 ([7]; pH 1 (0.1N HCl)): In solution; no excess solid
- solubility at 3 days ([7]; simulated gastric fluid, pH 1 (0.1N HCl), medium pH 1.08, prep. 11 mg/mL, room temperature, Day 3 pH 1.44, read-out: Conc Day 3): > 10700 µg/mL
- Residual Solids By XRPD ([3]; listed as Free base): Matches Input
- Residual Solids By XRPD ([3]; listed as free base): match the XRPD pattern of the initial input material
- effect on synovial IL-12 and IL-23 expression [8]: failed to alter synovial IL-12 and IL-23 expression
- immunomodulatory activity [9]: showed immunomodulatory activity supporting the inhibition of IL-12/IL-23 synthesis
- efficacy over placebo [10]: did not demonstrate efficacy over placebo
- tolerability [10]: well tolerated

Compound: Cc1cccc(/C=N/Nc2cc(N3CCOCC3)nc(OCCc3ccccn3)n2)c1.O=P(O)(O)O [Phosphate]
- pKa of Acid (first value) [1, 11]: 2.0
- pKa of Acid (second value) [1, 11]: 7.1
- pKa of Acid (third value) [1, 11]: 12.3
- Residual Solids By XRPD [3]: Matches Input
- Residual Solids By XRPD ([3]; listed as phosphate): match the XRPD pattern of the initial input material

Compound: Cc1cccc(/C=N/Nc2cc(N3CCOCC3)nc(OCCc3ccccn3)n2)c1.O=C(O)CC(=O)O [Malonate]
- pKa of Acid (first value) [1, 11]: 2.8
- pKa of Acid (second value) [1, 11]: 5.7
- Residual Solids By XRPD [3]: Matches Input
- Residual Solids By XRPD ([3]; listed as malonate): match the XRPD pattern of the initial input material

Compound: L-Tartrate
- pKa of Acid (first value) [1, 11]: 3.0
- pKa of Acid (second value) [1, 11]: 4.4
- Intrinsic Dissolution Rate free base equivalent [2]: 0.3399
- Residual Solids By XRPD [3]: match the XRPD pattern of the initial input material; also recorded: Matches Input
